Columns and labels:
[1] = test system: ACTH, 17OHP and androstenedione (A4) in participants with classic CAH; assay: Phase 2 open-label study in adults with classic CAH: change in ACTH, 17OHP and A4; format: in vivo, human
Description: (§1) An ongoing Phase 2 open-label study (Study Compound 2) is currently evaluating the safety and efficacy of Compound 1 dosed once daily for 6 weeks in adults with classic CAH. In the initial Cohort A of this study, all subjects are dosed starting at 200 mg/day for 14 days, escalating for each subject to 600 mg/day for 14 days, then 1000 mg/day for 14 days if the subject experiences no DLTs at the previous dose level. (FIGS. 2-3).
30% of subjects were in the normal range (*) after treatment with a CRF1 receptor antagonist.
50% of subjects were in the guideline range (*; 1200 ng/dL) after treatment with a CRF1 receptor antagonist.
50% of subjects were within the normal reference range after treatment with a CRF1 receptor antagonist.
(§2) The objectives of the study are: to assess the ability of Compound 1 to reduce excess ACTH and adrenal steroid production in participants with classic CAH on a stable gluococorticoid regimen; to evaluate the safety and tolerability of tildacerfont in participants with classic CAH; and to evaluate the pharmacokinetics (PK) of tildacerfont.
• Adult males and females 18 years or older • Diagnosis of classic CAH due to 21-hydroxylase deficiency • Morning 17OHP≥800 ng/dL, before taking any morning GC dose • On a stable regimen of gluococorticoid replacement for ≥30 days before enrollment Exclusion Criteria: • Clinically significant unstable medical condition, illness, or chronic disease within 30 days of screening • Clinically significant psychiatric disorder • History of bilateral adrenalectomy or hypopituitarism Study Design
FIG. 14 depicts the proof of concept and escalating QD dosing at 10 PM for Cohort A and the single dose level and BID dosing at 10 AM and 10 pm for Cohort B.
(§3) One participant withdrew early because of an occupation-related scheduling conflict. In Cohort B, 9 participants were enrolled and received at least one dose of Compound 1. […] Thus, baseline characteristics are calculated for n=8 in Cohort B. One participant in Cohort B was taking both HC and prednisone.

[2] = test system: testicular adrenal rest tumors (TART); assay: TART size pre-treatment vs 6 weeks post-treatment in a patient with classic CAH; format: in vivo, human; conditions: person with classic CAH, 6 weeks treatment
Source text: FIG. 10A-10B. Images of a patient with TART pre-treatment with a CRF1 antagonist (Compound 1) (A) and 6-weeks post-treatment with a CRF1 antagonist (Compound 1) (B).
FIGS. 10A-10B show approximately 25% shrinkage in TART in a person with classic congenital adrenal hyperplasia following 6 weeks treatment with a CRF1 receptor antagonist.

[3] = test system: participants with classic CAH; assay: Phase 2 study in classic CAH: safety and tolerability; format: in vivo, human; conditions: across both cohorts
Description: as §1, §2, §3

[4] = Phase 2 study in classic CAH: pharmacokinetics; format: in vivo, human; conditions: 200 to 1000 mg QD, patients with CAH
Source text: FIG. 2. Graphic representation of pharmacokinetics (dose-proportional, adequate exposure at safe doses) in patients with CAH following 14-days of once daily dosing at each dose level with a CRF1 antagonist (Compound 1).
FIG. 3. Graphic representation of pharmacokinetics (dose-proportional, adequate exposure at safe doses) in patients with CAH following 14-days of once daily dosing at each dose level with a CRF1 antagonist (Compound 1).
as §1, §2

[5] = Phase 1 studies in healthy volunteers: pharmacokinetics; format: in vivo
Description: The specification of study drug dosing at 10 pm and after consumption of a snack is based on information from the Phase 1 studies in healthy volunteers. The plasma Cmax (maximum concentration) for Compound 1 in the Phase 1 studies occurred approximately 5 hours after dosing. Therefore, Compound 1 will be dosed daily at 10 pm in this study in order to achieve peak plasma study drug concentration at the time of day when most adrenal androgens are produced. […] Specific dose reduction criteria, strict individual treatment stopping criteria, and appropriate laboratory and medical assessments have been established to ensure subject safety. (FIGS. 1A-1B).
To date, a total of 53 subjects, all healthy adults aged 21 to 65 years, have been treated with at least 1 dose of Compound 1 in 2 Phase 1 studies. The first-in-human study of Compound 1 (Study I3C-FW-BLAA) evaluated single ascending doses of 2 mg to 800 mg. […] A subsequent study (Study I3C-FW-BLAB) evaluated repeat doses of 50 mg, 100 mg, or 200 mg Compound 1 once daily for 14 consecutive days.

healthy volunteers = assay: Phase 1 studies in healthy volunteers: safety and tolerability; format: in vivo
Source text: Clinical laboratory measures of testicular function (LH, FSH, inhibin B, and SHBG) will be assessed throughout this study to monitor the risk of testicular injury. Testicular ultrasounds and semen analysis will also be performed at screening/baseline and the end of the treatment period.
Clinical laboratory measures of liver chemistry will be assessed throughout this study, and strict individual treatment stopping criteria for liver chemistry findings are in place.

rats = assay: Repeat-dose oral toxicology study, 91 days, rats; format: in vivo, rat
Source text: (§4) The nonclinical safety profile of Compound 1 has been evaluated in repeat-dose range-finding and definitive toxicology studies of up to 91 days in duration in rats and dogs using the clinically relevant route (oral) and schedule of administration (once daily).

beagle dogs = assay: Repeat-dose oral toxicology study, 91 days, beagle dogs; format: in vivo, dog
Source text: as §4

male rats = assay: Fertility toxicology study in male rats; format: in vivo, rat
Description: Additionally, a fertility toxicology study was conducted in rats. In this study, male rats were administered oral Compound 1 once daily at 0, 5, 20, or 1000 mg/kg for 85 to 87 days (70 days before mating, during mating, and ≤4 days between mating and necropsy). Male reproductive performance (mean day of mating, mating and fertility indices, and conception rates) was unaffected by Compound 1 treatment.

[6] = Nonclinical studies: liver function tests; format: in vivo; conditions: significantly higher doses
Source text: However, these events were not observed in the Phase 1 clinical studies. Clinical laboratory measures of liver chemistry will be assessed throughout this study, and strict individual treatment stopping criteria for liver chemistry findings are in place.

CRF1 receptor [7] = biological target: T1, CRF1 receptor (Homo sapiens, UniProt P34998); assay: In vitro and ex vivo CRF1 receptor binding studies
T1 sequence (P34998 24-415): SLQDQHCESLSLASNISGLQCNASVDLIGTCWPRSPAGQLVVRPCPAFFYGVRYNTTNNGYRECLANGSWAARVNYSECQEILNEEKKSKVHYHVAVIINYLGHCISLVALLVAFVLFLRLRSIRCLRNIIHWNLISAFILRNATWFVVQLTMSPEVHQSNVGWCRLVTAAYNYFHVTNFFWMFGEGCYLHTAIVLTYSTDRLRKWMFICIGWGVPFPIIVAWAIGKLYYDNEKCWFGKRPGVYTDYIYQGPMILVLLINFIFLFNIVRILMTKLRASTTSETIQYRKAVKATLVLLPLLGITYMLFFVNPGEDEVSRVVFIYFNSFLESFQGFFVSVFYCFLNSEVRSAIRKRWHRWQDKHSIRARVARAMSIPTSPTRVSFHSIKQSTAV
Description: (§5) FIG. 11A-11B. Graphic representation of an […] binding assay of a CRF1 antagonist (Compound 1); ^125I-sauvagine binding to rat cerebellar membranes one hour after oral administration of increasing Compound 1 doses (A) and in vivo inhibition of CRF-induced activity after treatment with a CRF1 antagonist; Compound 1 (oral, 10 mg/kg) (B).

CRF1 receptor [8] = biological target: T1, CRF1 receptor; assay: Inhibition of adenylate cyclase activity (CRF1 receptor-mediated downstream cascade); format: biochemical; conditions: in vitro
[9] = test system: CRF-induced locomotor behavior; assay: CRF-induced locomotor behavior after i.c.v. administration of CRF; format: in vivo; conditions: oral, 10 mg/kg
Description: as §5

[10] = CAH subjects, FIGS. 4 and 5A-5B
[11] = CAH subjects, FIGS. 6 and 7A-7B
[12] = CAH subjects, FIGS. 8 and 9A-9B
[13] = Cohort A (200, 600, 1000 mg QD)
[14] = healthy human subjects, Phase 1

With CCC(CC)c1cc(C)nc2c(-c3sc(N4CCOCC4)nc3Cl)c(C)nn12 [Compound 1, tildacerfont] the “subjects in the normal range for ACTH after treatment” value [1, 10] was 30 % of subjects, the “subjects who demonstrated >25% reduction in ACTH” value [1, 10] was 70 % of subjects and the “subjects who demonstrated reduction in ACTH” value [1, 10] was 80 % of subjects. The “subjects in the guideline range (1200 ng/dL) for 17-OHP after treatment” value [1, 11] was 50 % of subjects, the “subjects who demonstrated >25% reduction in ACTH (printed in the 17-OHP paragraph)” value [1, 11] was 50 % of subjects and the “subjects who demonstrated reduction in 17-OHP” value [1, 11] was 80 % of subjects. The “subjects who demonstrated >25% reduction in androstenedione” value [1, 12] was 60 % of subjects, the “subjects within the normal reference range for androstenedione after treatment” value [1, 12] was 50 % of subjects and the “subjects who demonstrated reduction in androstenedione” value ([1]; CAH subjects, at various doses, FIGS. 8 and 9A-9B) was 100 % of subjects. The “participants whose levels of 17OHP improved at ≥1 dose level” value [1, 13] was 8 out of 10, the “participants whose levels of A4 improved at ≥1 dose level” value [1, 13] was 10 out of 10 and the “participants whose levels of ACTH improved at ≥1 dose level” value [1, 13] was 8 out of 10. For the same compound, the “Percentage change from baseline in 17OHP” value ([1]; Cohort A, 200 mg QD (Week 2)) was “+22.2 (±172.3) %”, the “Percentage change from baseline in A4” value ([1]; Cohort A, 200 mg QD (Week 2)) was −12.1 (±47.4) % and the “Percentage change from baseline in ACTH” value ([1]; Cohort A, 200 mg QD (Week 2)) was −25.7 (±51.6) %. For the same compound, the “Percentage change from baseline in 17OHP” value ([1]; Cohort A, 600 mg QD (Week 4)) was −23.7 (±64.2) %, the “Percentage change from baseline in A4” value ([1]; Cohort A, 600 mg QD (Week 4)) was −33.2 (±36.5) % and the “Percentage change from baseline in ACTH” value ([1]; Cohort A, 600 mg QD (Week 4)) was −60.1 (±37.5) %. For the same compound, the “Percentage change from baseline in 17OHP” value ([1]; Cohort A, 1000 mg QD (Week 6)) was −13.8 (±74.7) %, the “Percentage change from baseline in A4” value ([1]; Cohort A, 1000 mg QD (Week 6)) was −28.6 (±44.6) % and the “Percentage change from baseline in ACTH” value ([1]; Cohort A, 1000 mg QD (Week 6)) was −32.7 (±47.0) %. For the same compound, the “participants whose levels of 17OHP improved at ≥1 dose level” value ([1]; Cohort B (200 mg BID)) was 6 out of 7, the “participants whose levels of A4 improved at ≥1 dose level” value ([1]; Cohort B (200 mg BID)) was 6 out of 8 and the “participants whose levels of ACTH improved at ≥1 dose level” value ([1]; Cohort B (200 mg BID)) was 5 out of 7. For the same compound, the “Percentage change from baseline in 17OHP” value ([1]; Cohort B, 200 mg BID (Weed 2)) was −47.8 (±63.3) %, the “Percentage change from baseline in A4” value ([1]; Cohort B, 200 mg BID (Weed 2)) was −16.0 (±81.4) % and the “Percentage change from baseline in ACTH” value ([1]; Cohort B, 200 mg BID (Weed 2)) was −36.5 (±58.0) %. The “shrinkage in TART” value [2] was “approximately 25%”, the “most common type of adverse event (AE)” value [3] was “gastrointestinal disorders” and the “serious AEs and AEs leading to withdrawal” value [3] was “no serious AEs and no AEs leading to withdrawal”. The tolerability [3] was “generally well tolerated”, the PK profile [4] was “predictable, dose-dependent PK profile” and the “study drug absorption in a fasted state” value [5] was “minimal study drug absorption”. For the same compound, the “laboratory abnormalities in liver function tests (LFTs)” value (healthy volunteers; Phase 1 clinical studies) was “not observed”, the “alterations in safety laboratory values, vital signs, or electrocardiograms (ECGs)” value (healthy volunteers; Phase 1 studies) was “no clinically significant alterations” and the “adverse events, single ascending doses” value (healthy volunteers; Study I3C-FW-BLAA, 2 mg to 800 mg, small number of subjects) was “diarrhea and headache of mild or moderate severity”. For the same compound, the “adverse events, repeat doses” value (healthy volunteers; Study I3C-FW-BLAB, 50, 100 or 200 mg once daily for 14 days, small number of subjects) was “dyspnea, rhinorrhea, palpitations, and headache”, the “SAEs, AEs leading to discontinuation, dose-limiting toxicities” value (healthy volunteers; [14]) was “no SAEs, AEs leading to discontinuation, or dose-limiting toxicities (DLTs)” and the tolerability (healthy volunteers; [14]) was “well tolerated”. The “effects on clinical laboratory markers of testicular function (LH and FSH)” value (healthy volunteers; healthy male volunteers, up to 200 mg per day for 14 consecutive days) was “no effects”, the maximum tolerated dose (healthy volunteers; humans) was “has not been reached” and the reversibility of findings (rats; 6-week treatment-free recovery period) was “reversible”. For the same compound, the testicular effects (rats; high-dose 2,000 mg/kg/day) was “reversible testicular effects (degeneration/atrophy)”, the toxicologic findings (rats; oral once daily, 91 days, up to 2000 mg/kg/day) was “all mild and limited to the male reproductive tract” and the reversibility of findings (beagle dogs; beagle dogs, 6-week treatment-free recovery period) was “reversible”. For the same compound, the toxicologic findings (beagle dogs; beagle dogs, oral once daily, 91 days, up to 2000 mg/kg/day) was “all mild and limited to the male reproductive tract”, the “effects on the thyroid gland” value (beagle dogs; dogs, 91 days, high-dose 2,000 mg/kg/day) was “effects on the thyroid gland were noted” and the testicular effects (beagle dogs; dogs, high-dose 2,000 mg/kg/day) was “reversible testicular effects (degeneration/atrophy)”. The “male reproductive performance (mean day of mating, mating and fertility indices, conception rates)” value (male rats; male rats, oral once daily 5, 20 or 1000 mg/kg for 85 to 87 days) was “unaffected”, the impairment in fertility (male rats; male reproductive studies in rodents, highest dose tested 1,000 mg/kg/day) was “no impairment in fertility” and the “ovarian and uterine effects in untreated females mated with treated males” value (male rats; rats) was “no ovarian and uterine effects”. The “laboratory abnormalities in liver function tests (LFTs)” value [6] was “have been observed at significantly higher doses”, the “affinity and selectivity for the hCRF1 receptor” value (CRF1 receptor [7]) was “high affinity and selective for the hCRF1 receptor” and the “inhibition of adenylate cyclase activity” value (CRF1 receptor [8]) was “functional potency to inhibit adenylate cyclase activity”. The “inhibition of CRF-induced locomotor behavior” value [9] was “significantly inhibit”.
